Experimental data reported in patent publication US11083725B2 (priority 2014, dated 2021).

System: NHBE cells
Test: Biolog metabolic array: substrate use by NHBE cells with or without CA09 infection
Assay type: cell-based, human
Details: for Substrate use, 590 nm absorbance normalized to zero hour, 0 hr: Biolog PMM2, 0 hr; for Substrate use, 590 nm absorbance normalized to zero hour, 1 hr: Biolog PMM2, 1 hr; for Substrate use, 590 nm absorbance normalized to zero hour, 5 hr: Biolog PMM2, 5 hr; for Substrate use, 590 nm absorbance normalized to zero hour, 7 hr: Biolog PMM2, 7 hr
[1] = Control (uninfected) NHBE cells
[2] = Virus (CA09-infected NHBE cells, MOI 1)
[3] = Virus: CA09-infected NHBE cells, MOI 1, Biolog PMM2

SMILES	590 nm absorbance normalized to zero hour (substrate use), 0 hr [1]	590 nm absorbance normalized to zero hour (substrate use), 1 hr [1]	590 nm absorbance normalized to zero hour (substrate use), 2 hr [1]	590 nm absorbance normalized to zero hour (substrate use), 3 hr [1]	590 nm absorbance normalized to zero hour (substrate use), 4 hr [1]	590 nm absorbance normalized to zero hour (substrate use), 6 hr [1]	590 nm absorbance normalized to zero hour (substrate use), 8 hr [1]	590 nm absorbance normalized to zero hour (substrate use), 9 hr [1]	590 nm absorbance normalized to zero hour (substrate use), 10 hr [1]	590 nm absorbance normalized to zero hour (substrate use), 11 hr [1]	Substrate use, 590 nm absorbance normalized to zero hour, 0 hr [1]	Substrate use, 590 nm absorbance normalized to zero hour, 1 hr [1]	Substrate use, 590 nm absorbance normalized to zero hour, 5 hr [1]	Substrate use, 590 nm absorbance normalized to zero hour, 7 hr [1]	590 nm absorbance normalized to zero hour (substrate use), 0 hr [2]	590 nm absorbance normalized to zero hour (substrate use), 1 hr [2]	590 nm absorbance normalized to zero hour (substrate use), 2 hr [2]	590 nm absorbance normalized to zero hour (substrate use), 3 hr [2]	590 nm absorbance normalized to zero hour (substrate use), 4 hr [2]	590 nm absorbance normalized to zero hour (substrate use), 5 hr [2]	further results
O=C(O)CCCO [g-Hydroxy-Butyric Acid]	1.00	1.24	1.38	1.92	1.86	0.79	1.94	2.09	2.05	2.76	1.00	1.24	1.71	1.88	1.00	0.53	0.53	0.41	0.44	0.50	590 nm absorbance normalized to zero hour (substrate use), 6 hr [2]: 0.54; 590 nm absorbance normalized to zero hour (substrate use), 7 hr [2]: 0.56; 590 nm absorbance normalized to zero hour (substrate use), 8 hr [2]: 0.59; 590 nm absorbance normalized to zero hour (substrate use), 9 hr [2]: 0.62; 590 nm absorbance normalized to zero hour (substrate use), 10 hr [2]: 0.63; 590 nm absorbance normalized to zero hour (substrate use), 11 hr [2]: 0.53; 590 nm absorbance normalized to zero hour (substrate use), 0 hr [3]: 1.00; 590 nm absorbance normalized to zero hour (substrate use), 1 hr [3]: 0.53; 590 nm absorbance normalized to zero hour (substrate use), 2 hr [3]: 0.53; 590 nm absorbance normalized to zero hour (substrate use), 3 hr [3]: 0.41; 590 nm absorbance normalized to zero hour (substrate use), 4 hr [3]: 0.44; 590 nm absorbance normalized to zero hour (substrate use), 5 hr [3]: 0.50; 590 nm absorbance normalized to zero hour (substrate use), 6 hr [3]: 0.54; 590 nm absorbance normalized to zero hour (substrate use), 7 hr [3]: 0.56; 590 nm absorbance normalized to zero hour (substrate use), 8 hr [3]: 0.59; 590 nm absorbance normalized to zero hour (substrate use), 9 hr [3]: 0.62; 590 nm absorbance normalized to zero hour (substrate use), 10 hr [3]: 0.63; 590 nm absorbance normalized to zero hour (substrate use), 11 hr [3]: 0.53
OC[C@@H](O)[C@@H](O)CO [i-Erythritol]	1.00	1.76	2.33	2.67	2.83	5.19	3.84	4.30	4.08	4.22	1.00	1.76	3.31	3.78	1.00	0.23	0.29	0.32	0.34	0.39	590 nm absorbance normalized to zero hour (substrate use), 6 hr [2]: 0.41; 590 nm absorbance normalized to zero hour (substrate use), 7 hr [2]: 0.43; 590 nm absorbance normalized to zero hour (substrate use), 8 hr [2]: 0.45; 590 nm absorbance normalized to zero hour (substrate use), 9 hr [2]: 0.49; 590 nm absorbance normalized to zero hour (substrate use), 10 hr [2]: 0.50; 590 nm absorbance normalized to zero hour (substrate use), 11 hr [2]: 0.53; 590 nm absorbance normalized to zero hour (substrate use), 0 hr [3]: 1.00; 590 nm absorbance normalized to zero hour (substrate use), 1 hr [3]: 0.23; 590 nm absorbance normalized to zero hour (substrate use), 2 hr [3]: 0.29; 590 nm absorbance normalized to zero hour (substrate use), 3 hr [3]: 0.32; 590 nm absorbance normalized to zero hour (substrate use), 4 hr [3]: 0.34; 590 nm absorbance normalized to zero hour (substrate use), 5 hr [3]: 0.39; 590 nm absorbance normalized to zero hour (substrate use), 6 hr [3]: 0.41; 590 nm absorbance normalized to zero hour (substrate use), 7 hr [3]: 0.43; 590 nm absorbance normalized to zero hour (substrate use), 8 hr [3]: 0.45; 590 nm absorbance normalized to zero hour (substrate use), 9 hr [3]: 0.49; 590 nm absorbance normalized to zero hour (substrate use), 10 hr [3]: 0.50; 590 nm absorbance normalized to zero hour (substrate use), 11 hr [3]: 0.53
O[C@H]1[C@H](O)[C@@H](O)[C@H](O)[C@@H](O)[C@H]1O [m-Inositol]	1.00	1.63	2.13	3.87	3.78	3.01	3.42	3.81	3.89	3.64	1.00	1.63	3.07	3.55	1.00	0.51	0.66	0.77	0.81	0.94	Substrate use, 590 nm absorbance normalized to zero hour, 11 hr (Control (uninfected) NHBE cells, Biolog PMM2, 11 hr): 4.22; 590 nm absorbance normalized to zero hour (substrate use), 6 hr [2]: 0.99; 590 nm absorbance normalized to zero hour (substrate use), 7 hr [2]: 1.04; 590 nm absorbance normalized to zero hour (substrate use), 8 hr [2]: 1.10; 590 nm absorbance normalized to zero hour (substrate use), 9 hr [2]: 1.20; 590 nm absorbance normalized to zero hour (substrate use), 10 hr [2]: 1.24; 590 nm absorbance normalized to zero hour (substrate use), 11 hr [2]: 1.34; 590 nm absorbance normalized to zero hour (substrate use), 0 hr [3]: 1.00; 590 nm absorbance normalized to zero hour (substrate use), 1 hr [3]: 0.51; 590 nm absorbance normalized to zero hour (substrate use), 2 hr [3]: 0.66; 590 nm absorbance normalized to zero hour (substrate use), 3 hr [3]: 0.77; 590 nm absorbance normalized to zero hour (substrate use), 4 hr [3]: 0.81; 590 nm absorbance normalized to zero hour (substrate use), 5 hr [3]: 0.94; 590 nm absorbance normalized to zero hour (substrate use), 6 hr [3]: 0.99; 590 nm absorbance normalized to zero hour (substrate use), 7 hr [3]: 1.04; 590 nm absorbance normalized to zero hour (substrate use), 8 hr [3]: 1.10; 590 nm absorbance normalized to zero hour (substrate use), 9 hr [3]: 1.20; 590 nm absorbance normalized to zero hour (substrate use), 10 hr [3]: 1.24; 590 nm absorbance normalized to zero hour (substrate use), 11 hr [3]: 1.34
